The target in data set [1] is T1, Orexin receptor type 2 (Homo sapiens, UniProt O43614).
T1 sequence (O43614 whole entry): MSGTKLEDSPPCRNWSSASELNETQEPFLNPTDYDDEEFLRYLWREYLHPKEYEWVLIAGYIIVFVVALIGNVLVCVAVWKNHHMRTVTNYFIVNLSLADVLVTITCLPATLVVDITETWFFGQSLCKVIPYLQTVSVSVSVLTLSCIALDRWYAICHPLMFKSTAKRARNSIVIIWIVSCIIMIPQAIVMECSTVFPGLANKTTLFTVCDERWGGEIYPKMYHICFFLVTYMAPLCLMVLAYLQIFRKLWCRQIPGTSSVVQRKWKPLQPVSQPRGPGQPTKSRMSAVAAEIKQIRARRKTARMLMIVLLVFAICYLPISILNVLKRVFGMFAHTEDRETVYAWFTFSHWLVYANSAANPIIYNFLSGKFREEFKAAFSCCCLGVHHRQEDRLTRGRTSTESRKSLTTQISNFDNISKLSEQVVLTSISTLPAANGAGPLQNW
The experiment in a line: Binding affinity to OX2 receptor.

Data set [2] can be described thus: Selectivity of Ki for OX1 receptor to Ki for OX2 receptor.
Data set [3] addresses T2, Orexin/Hypocretin receptor type 1 (Homo sapiens, UniProt O43613).
T2 sequence (O43613 whole entry): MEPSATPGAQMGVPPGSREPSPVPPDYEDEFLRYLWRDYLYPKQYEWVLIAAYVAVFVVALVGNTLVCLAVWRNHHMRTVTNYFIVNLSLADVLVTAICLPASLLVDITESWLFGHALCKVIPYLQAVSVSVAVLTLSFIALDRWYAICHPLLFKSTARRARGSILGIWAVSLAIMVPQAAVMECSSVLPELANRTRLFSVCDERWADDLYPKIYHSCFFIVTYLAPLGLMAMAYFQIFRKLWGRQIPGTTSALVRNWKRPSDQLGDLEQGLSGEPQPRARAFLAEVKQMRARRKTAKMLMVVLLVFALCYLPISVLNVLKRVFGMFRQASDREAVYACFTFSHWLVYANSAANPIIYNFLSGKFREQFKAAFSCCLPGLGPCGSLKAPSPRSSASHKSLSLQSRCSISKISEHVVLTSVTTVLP
Briefly: Binding affinity to OX1 receptor.

In data set [4] the target is T3, Orexin/Hypocretin receptor type 1 (Homo sapiens) (UniProt O43613).
T3 sequence (whole entry): T2 sequence (O43613 whole entry)
Briefly: Antagonist activity at human OX1 receptor expressed in CHO cells assessed as inhibition of receptor-mediated calcium response by FLIPR. It counts as functional, cell-based.

In data set [5] the target is T4, Orexin receptor type 2 (Homo sapiens) (UniProt O43614).
T4 sequence (whole entry): T1 sequence (O43614 whole entry)
The experiment in a line: Antagonist activity at human OX2 receptor expressed in CHO cells assessed as inhibition of receptor-mediated calcium response by FLIPR. It counts as functional, cell-based.

Data set [6] addresses T2, Orexin/Hypocretin receptor type 1. The experiment in a line: Antagonist activity at OX1 receptor by FLIPR. It counts as functional.
The target of data set [7] is T1, Orexin receptor type 2. Briefly: Antagonist activity at OX2 receptor by FLIPR. It counts as functional.
Data set [8] is described as follows: Selectivity for OX1 receptor over OX2 receptor.
For data set [9], the target named is T2, Orexin/Hypocretin receptor type 1. Briefly: Antagonist activity at human OX1 receptor. It counts as functional.
Data set [10] addresses T1, Orexin receptor type 2. The experiment in a line: Antagonist activity at human OX2 receptor. The data set is classed as functional.
Data set [11] in a line: Inhibition of neuropeptide Y receptor at 10 uM.
Data set [12] can be described thus: Inhibition of galanin receptor at 10 uM.
The target in data set [13] is T5, Neuropeptide Y receptor type 1 (Homo sapiens) (UniProt P25929).
T5 sequence (whole entry): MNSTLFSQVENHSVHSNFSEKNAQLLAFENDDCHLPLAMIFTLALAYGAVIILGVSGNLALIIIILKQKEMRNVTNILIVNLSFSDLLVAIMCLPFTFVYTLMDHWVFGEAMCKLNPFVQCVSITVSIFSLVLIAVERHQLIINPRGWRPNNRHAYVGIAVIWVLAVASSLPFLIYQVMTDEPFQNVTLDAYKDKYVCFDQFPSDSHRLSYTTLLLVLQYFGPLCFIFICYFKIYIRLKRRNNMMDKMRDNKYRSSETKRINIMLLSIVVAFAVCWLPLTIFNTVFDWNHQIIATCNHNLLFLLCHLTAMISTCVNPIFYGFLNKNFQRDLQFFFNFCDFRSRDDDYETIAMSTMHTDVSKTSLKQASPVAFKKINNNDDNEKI
The experiment in a line: Inhibition of NPY1 receptor at 10 uM.

For data set [14], the target named is T6, Neuromedin-K receptor (Homo sapiens) (UniProt P29371).
T6 sequence (whole entry): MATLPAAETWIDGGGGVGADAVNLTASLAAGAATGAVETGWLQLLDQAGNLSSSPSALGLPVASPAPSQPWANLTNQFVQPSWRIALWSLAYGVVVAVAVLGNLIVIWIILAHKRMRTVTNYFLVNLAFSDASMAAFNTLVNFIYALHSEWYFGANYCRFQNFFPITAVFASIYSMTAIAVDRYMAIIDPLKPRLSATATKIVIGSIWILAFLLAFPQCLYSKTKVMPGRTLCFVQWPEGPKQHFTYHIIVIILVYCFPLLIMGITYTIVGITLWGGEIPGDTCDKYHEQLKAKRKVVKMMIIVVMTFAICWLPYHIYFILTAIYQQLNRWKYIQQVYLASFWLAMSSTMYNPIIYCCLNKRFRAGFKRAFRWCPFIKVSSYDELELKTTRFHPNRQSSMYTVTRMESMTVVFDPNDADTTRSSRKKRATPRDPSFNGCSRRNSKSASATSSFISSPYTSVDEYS
Briefly: Inhibition of neurokinin-3 receptor at 10 uM.

In data set [15] the target is Kappa-type opioid receptor (Homo sapiens) (UniProt P41145). Briefly: Inhibition of kappa opioid receptor at 10 uM.
Data set [16] is described as follows: Aqueous solubility at pH 7. The data set is classed as physicochemical.

SMILES strings stand for the structures. Converted amounts (≈) assume the structure as drawn.

Kappa-type opioid receptor (Homo sapiens), sequence (P41145 whole entry): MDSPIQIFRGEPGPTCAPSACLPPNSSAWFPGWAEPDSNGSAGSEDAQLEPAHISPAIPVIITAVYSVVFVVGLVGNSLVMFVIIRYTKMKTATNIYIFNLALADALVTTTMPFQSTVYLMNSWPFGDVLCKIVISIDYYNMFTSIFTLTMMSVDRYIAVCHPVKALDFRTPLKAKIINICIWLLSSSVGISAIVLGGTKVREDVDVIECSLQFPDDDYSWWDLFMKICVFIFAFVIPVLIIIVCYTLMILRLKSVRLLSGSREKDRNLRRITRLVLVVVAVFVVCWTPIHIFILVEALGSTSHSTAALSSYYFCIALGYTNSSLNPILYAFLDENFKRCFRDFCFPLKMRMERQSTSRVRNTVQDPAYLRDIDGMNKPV

The term Ki denotes a dissociation constant, usually derived from enzyme kinetics or from competition with a known ligand. On to `CC1(C)OC[C@H](NC(=O)Nc2cccc(Br)c2)[C@H](c2ccccc2)O1`, for which the Ki in [1] was over 10 µM; in [3], 1000 nM. Also, in data set [2], the Ratio was determined as 9.
Turning to `CC1(C)OC[C@H](NC(=O)Nc2ccc(Br)cc2Cl)[C@H](c2ccccc2)O1`, the Ki is over 5.01 µM in data set [1] and 6.31 nM in data set [3]. The Ratio in data set [2] turned out to be 900.
As to `CC1(C)OC[C@H](NC(=O)Nc2ccc(Cl)cc2Cl)[C@H](c2ccccc2)O1`, the Ki was 2.51 µM in data set [1] and 20 nM in [3]. In data set [2], the Ratio was determined as 100.
Turning to `Cc1cc(Br)ccc1NC(=O)N[C@H]1COC(C)(C)O[C@H]1c1ccccc1`, the Ki is over 10 µM in data set [1] and 39.8 nM in data set [3]. For the same molecule, the Ratio in [2] came to 200.
For the molecule `CC(C)c1ccccc1NC(=O)N[C@H]1COC(C)(C)O[C@H]1c1ccccc1`, the Ki in data set [1] was over 10 µM; in [3], 2510 nM. Besides, the Ratio in [2] was found to be 4.
One may read the pKb as the negative decadic logarithm of the Kb, by convention in mol/L. Consider `Cn1ccc2cc(NC(=O)Nc3ccnc4ccccc34)ccc21`, for which the results for the pKb in data set [4] and in [5] were 7.5 and 5.6, respectively.
In the case of `CC1(C)OC[C@H](NC(=O)Nc2ccccc2)[C@H](c2ccccc2)O1`, the values for the Ki in data set [1] and in data set [3] were over 10 µM and 501 nM, respectively. Also, in [2], the Ratio worked out at 20.
`CC1(C)OC[C@H](NC(=O)Nc2ccccc2C(F)(F)F)[C@H](c2ccccc2)O1`: the Ki in [1] is over 10 µM; in [3] it was 100 nM. In data set [2], the Ratio was 100.
As a reminder, the IC50 is the concentration at which inhibition is half-maximal. For the molecule `Cc1cccc(-c2sc(CCCO)nc2C(=O)N2C[C@H]3C[C@H]3[C@H]2CNC(=O)c2c(C)nc3sccn23)c1`, the IC50 in data set [6] came out at 19 nM; in [7], 17 nM.
Take `CC1(C)OC[C@H](NC(=O)Nc2ccccc2I)[C@H](c2ccccc2)O1`: the Ki is over 5.01 µM in data set [1] and 79.4 nM in data set [3]. Besides, the Ratio in [2] is 70.
The term Kd denotes the constant that tells how readily two partners part at equilibrium. A high value points to lower affinity. In the case of `Cc1nc(C(=O)N2CCC[C@H]2Cc2nnc(-c3ccccc3)o2)c(-c2ccccc2F)s1`, the Ratio in [8] is over 100. Binding in [3] was put at a Kd of 5.13 nM.
Turning to `CC1(C)OC[C@H](NC(=O)Nc2ccccc2F)[C@H](c2ccccc2)O1`, the Ki in [1] is over 10 µM; in data set [3] it was 398 nM. Further, the Ratio in data set [2] is 20.
On to `COc1cc2c(cc1OC)CN(C(=O)C(Cc1ccccc1)C(=O)c1cc(Cl)cc(Cl)c1)CC2` (racemic), for which the IC50 in [9] is 5.3 µM; in data set [10], 36 nM.
The inhibition is how much of the control response was suppressed. For the molecule `COc1cc2c(cc1OC)CN(C(=O)[C@@H](NCc1ccncc1)C(C)(C)C)CC2`, the inhibition in data set [11] and in data set [12] was under 30% each time.
With `CC1(C)OC[C@H](NC(=O)Nc2ccc(Br)cc2Br)[C@H](c2ccccc2)O1`, the Ki in [1] was 3.16 µM. The inhibition in [13], in data set [14] and in data set [15] was under 40% each time. Further, the Ratio in data set [2] is 600.
Consider `CCc1nc(OC)c2n1CCN([C@@H](C(=O)NC)c1ccccc1)[C@H]2CCc1ccc(C)c(C)c1`, for which the results for the IC50 in [6] and in [7] were 5 nM and 4 nM, respectively.
As to `CCc1nc(OC)c2n1CCN([C@@H](C(=O)NC)c1ccccc1)[C@H]2CCc1ccc(C)c(F)c1`, the values for the IC50 in data set [6] and in data set [7] were 49 nM and 2 nM, respectively.
Turning to `Cc1cc(NC(=O)Nc2ccc(N(C)C)cc2)c2cc(F)cc(F)c2n1`, in data set [8], the Ratio is over 50. For the same molecule, the Kd in data set [3] was 26.9 nM.
For the molecule `CC1(C)OC[C@H](NC(=O)Nc2ccc(Br)cc2)[C@H](c2ccccc2)O1`, the results for the Ki in data set [1] and in data set [3] were over 10 µM and 251 nM, respectively. Also, the Ratio in data set [2] was determined as 40.
As for `CNC1CCCC1CN[C@H](C(=O)N1CCc2cc(OC)c(OC)cc2C1)C(C)(C)C` (stereo not given in full), the IC50 in data set [9] amounted to 3.6 µM; in data set [10] it was 28 nM.
In the case of `COc1ccccc1NC(=O)N[C@H]1COC(C)(C)O[C@H]1c1ccccc1`, the Ki is over 10 µM in [1] and 2510 nM in [3]. The Ratio in data set [2] stood at 4.
The matching figures for `CC1(C)OC[C@H](NC(=O)Nc2ccccc2Cl)[C@H](c2ccccc2)O1`: over 10 µM, 79.4 nM and 100.
For `CN(C)c1ccc(NC(=O)Nc2ccnc3ccccc23)cc1`, the pKb in data set [4] was 7.8.
Turning to `Cn1ccc2cc(NC(=O)Nc3cccc4ccccc34)ccc21`, the pKb in [4] was under 6.3.
`CC1(C)OC[C@H](NC(=O)Nc2c(Cl)cccc2Cl)[C@H](c2ccccc2)O1`: the Ki in [1] is over 10 µM; in [3] it was over 5010 nM. Also, the Ratio in data set [2] stood at 2.
For the molecule `CCN(Cc1cc(C)n(C)n1)C(=O)CN(c1cc(N(C)C)ccc1Cl)S(=O)(=O)c1ccc(OC)c(OC)c1`, the IC50 in data set [6] came out at 6 nM; in [7], 4 nM.
As to `O=C(Nc1ccc2ncoc2c1)Nc1ccnc2ccccc12`, the pKb in data set [4] is 7.
`CC1(C)OC[C@H](NC(=O)Nc2cc(Cl)ccc2Cl)[C@H](c2ccccc2)O1`: the Ki was over 5.01 µM in data set [1] and 63.1 nM in data set [3]. The Ratio in [2] turned out to be 80.
As for `CN(C)c1ccc(NC(=O)Nc2ccnc3c(F)ccc(F)c23)cc1`, in data set [8], the Ratio is over 50. This molecule also showed a Kd in [3] of 4.47 nM.
With `Cc1ccc(Cl)c(NC(=O)N[C@H]2COC(C)(C)O[C@H]2c2ccccc2)c1`, the figures for the Ki in [1] and in data set [3] were over 5.01 µM and 63.1 nM, respectively. Moreover, in [2], the Ratio came out at 80.
On to `CN(C)c1ccc(NC(=O)Nc2ccnc3ccccc23)cc1Cl`, for which the pKb in data set [4] is 7.4.
Take `CCN(Cc1ccn(C)n1)C(=O)CN(c1cc(N(C)C)ccc1Cl)S(=O)(=O)c1ccc(OC)c(OC)c1`: the values for the IC50 in data set [6] and in data set [7] were 12 nM and 7 nM, respectively.
Consider `Cc1ccc(NC(=O)N[C@H]2COC(C)(C)O[C@H]2c2ccccc2)c(C)c1`, for which the values for the Ki in data set [1] and in data set [3] were over 10 µM and 126 nM, respectively. For the same molecule, the Ratio in data set [2] amounted to 70.
Take `Cn1ccc2cc(NC(=O)Nc3ccnc4cccnc34)ccc21`: the pKb in data set [4] amounted to 7.3.
Regarding `CCN(Cc1cccc(C)n1)C(=O)CN(c1cc(N(C)C)ccc1Cl)S(=O)(=O)c1ccc(OC)c(OC)c1`, the IC50 in [6] came to 17 nM; in data set [7], 5 nM.
By solubility is commonly meant the concentration that dissolves in the medium under given conditions. Higher therefore signals a readily soluble substance. In data set [16], `COc1cc2c(cc1OC)CN(C(=O)C(Cc1ccccc1)c1ccccc1)CC2` (racemic) showed a solubility of 810 µg/mL (≈ 2020 µM).

For the origin of these results see ChEMBL document CHEMBL1140924, “Biomedical application of orexin/hypocretin receptor ligands in neuroscience” (J Med Chem, 2009).
